Measured values as given in PMC3082441 (Journal of medicinal chemistry, 2008).
Where two headings read alike, the source gives them in different places.

Key:
CyaC [1] = molecular target: T1, CyaC (Limnospira platensis, UniProt O32393); details: cited from earlier work
CyaC [2] = molecular target: T1, CyaC
AC9 = molecular target: T2, AC9 (Homo sapiens, UniProt O60503); details: 100 μM compound, transfected HEK293T lysate
T2 sequence (O60503 1-1353): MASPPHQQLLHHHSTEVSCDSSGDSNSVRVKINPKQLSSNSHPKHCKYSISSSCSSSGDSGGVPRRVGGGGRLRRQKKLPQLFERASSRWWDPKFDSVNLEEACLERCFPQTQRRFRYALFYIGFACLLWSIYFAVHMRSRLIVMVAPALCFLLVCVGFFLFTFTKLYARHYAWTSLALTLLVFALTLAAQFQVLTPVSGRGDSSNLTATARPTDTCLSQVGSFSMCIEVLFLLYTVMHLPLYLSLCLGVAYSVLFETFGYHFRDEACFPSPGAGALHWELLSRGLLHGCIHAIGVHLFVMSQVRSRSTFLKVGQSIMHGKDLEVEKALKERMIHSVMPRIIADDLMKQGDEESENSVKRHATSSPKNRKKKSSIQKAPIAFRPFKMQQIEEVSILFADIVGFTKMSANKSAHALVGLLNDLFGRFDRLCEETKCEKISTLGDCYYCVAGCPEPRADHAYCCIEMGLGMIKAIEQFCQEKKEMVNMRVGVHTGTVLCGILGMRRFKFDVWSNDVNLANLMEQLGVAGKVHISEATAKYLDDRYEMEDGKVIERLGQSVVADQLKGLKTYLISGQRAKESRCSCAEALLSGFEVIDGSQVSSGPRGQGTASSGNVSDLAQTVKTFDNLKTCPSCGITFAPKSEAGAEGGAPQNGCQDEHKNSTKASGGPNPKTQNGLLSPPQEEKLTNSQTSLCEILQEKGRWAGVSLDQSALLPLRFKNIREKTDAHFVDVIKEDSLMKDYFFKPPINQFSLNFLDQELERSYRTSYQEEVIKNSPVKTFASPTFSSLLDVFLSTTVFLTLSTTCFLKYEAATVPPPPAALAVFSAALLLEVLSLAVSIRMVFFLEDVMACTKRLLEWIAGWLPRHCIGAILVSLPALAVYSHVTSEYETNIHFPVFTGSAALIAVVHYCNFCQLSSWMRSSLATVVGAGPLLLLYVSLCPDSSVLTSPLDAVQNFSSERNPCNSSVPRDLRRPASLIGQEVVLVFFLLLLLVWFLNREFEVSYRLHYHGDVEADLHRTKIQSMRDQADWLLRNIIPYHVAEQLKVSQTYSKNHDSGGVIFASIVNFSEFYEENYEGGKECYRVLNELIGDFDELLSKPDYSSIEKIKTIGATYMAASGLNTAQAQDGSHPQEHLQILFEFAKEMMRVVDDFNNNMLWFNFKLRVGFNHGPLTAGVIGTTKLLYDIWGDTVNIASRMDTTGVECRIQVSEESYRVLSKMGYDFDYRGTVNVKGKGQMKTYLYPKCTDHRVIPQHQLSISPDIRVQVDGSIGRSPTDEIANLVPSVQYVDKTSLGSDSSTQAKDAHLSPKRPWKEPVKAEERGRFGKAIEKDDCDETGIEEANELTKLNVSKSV

AC5 = AC5 (Homo sapiens, UniProt O95622); details: 100 μM compound; forskolin-stimulated; transfected HEK293T lysate
AC5, sequence (O95622 whole entry, species assumed): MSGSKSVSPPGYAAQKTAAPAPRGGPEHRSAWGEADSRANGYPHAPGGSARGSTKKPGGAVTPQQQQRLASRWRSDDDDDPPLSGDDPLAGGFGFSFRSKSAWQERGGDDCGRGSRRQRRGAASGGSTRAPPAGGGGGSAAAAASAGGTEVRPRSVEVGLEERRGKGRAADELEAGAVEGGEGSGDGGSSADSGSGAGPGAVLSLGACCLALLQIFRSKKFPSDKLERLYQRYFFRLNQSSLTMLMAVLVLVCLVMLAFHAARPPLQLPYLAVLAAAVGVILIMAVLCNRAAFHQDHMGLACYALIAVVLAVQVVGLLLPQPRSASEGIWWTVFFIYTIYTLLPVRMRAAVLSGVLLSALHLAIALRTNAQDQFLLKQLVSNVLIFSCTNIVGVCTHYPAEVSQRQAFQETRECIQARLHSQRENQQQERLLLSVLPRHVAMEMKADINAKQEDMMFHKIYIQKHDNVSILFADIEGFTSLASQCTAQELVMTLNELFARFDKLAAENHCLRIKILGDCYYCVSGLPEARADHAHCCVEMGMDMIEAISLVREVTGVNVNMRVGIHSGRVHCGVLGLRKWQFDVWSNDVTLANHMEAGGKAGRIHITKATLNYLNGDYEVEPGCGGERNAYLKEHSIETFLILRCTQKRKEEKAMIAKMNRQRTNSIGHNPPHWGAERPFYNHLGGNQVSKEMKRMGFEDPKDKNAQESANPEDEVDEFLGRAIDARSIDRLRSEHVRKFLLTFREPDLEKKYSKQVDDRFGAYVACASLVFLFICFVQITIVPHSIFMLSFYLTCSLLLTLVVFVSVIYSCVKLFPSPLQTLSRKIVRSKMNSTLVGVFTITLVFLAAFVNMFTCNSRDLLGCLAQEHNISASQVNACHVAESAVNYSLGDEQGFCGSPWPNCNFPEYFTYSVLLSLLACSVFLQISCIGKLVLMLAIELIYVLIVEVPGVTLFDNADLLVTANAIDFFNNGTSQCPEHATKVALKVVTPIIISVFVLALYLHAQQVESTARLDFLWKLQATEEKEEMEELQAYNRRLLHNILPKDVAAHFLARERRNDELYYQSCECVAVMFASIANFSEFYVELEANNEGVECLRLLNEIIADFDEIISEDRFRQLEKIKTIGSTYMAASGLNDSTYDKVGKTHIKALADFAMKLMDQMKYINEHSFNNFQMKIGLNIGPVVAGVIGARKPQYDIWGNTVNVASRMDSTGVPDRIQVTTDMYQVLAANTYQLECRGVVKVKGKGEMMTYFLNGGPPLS

AC1 = AC1 (Homo sapiens, UniProt Q08828); details: 100 μM compound; forskolin-stimulated; transfected HEK293T lysate
AC1, sequence (Q08828 whole entry): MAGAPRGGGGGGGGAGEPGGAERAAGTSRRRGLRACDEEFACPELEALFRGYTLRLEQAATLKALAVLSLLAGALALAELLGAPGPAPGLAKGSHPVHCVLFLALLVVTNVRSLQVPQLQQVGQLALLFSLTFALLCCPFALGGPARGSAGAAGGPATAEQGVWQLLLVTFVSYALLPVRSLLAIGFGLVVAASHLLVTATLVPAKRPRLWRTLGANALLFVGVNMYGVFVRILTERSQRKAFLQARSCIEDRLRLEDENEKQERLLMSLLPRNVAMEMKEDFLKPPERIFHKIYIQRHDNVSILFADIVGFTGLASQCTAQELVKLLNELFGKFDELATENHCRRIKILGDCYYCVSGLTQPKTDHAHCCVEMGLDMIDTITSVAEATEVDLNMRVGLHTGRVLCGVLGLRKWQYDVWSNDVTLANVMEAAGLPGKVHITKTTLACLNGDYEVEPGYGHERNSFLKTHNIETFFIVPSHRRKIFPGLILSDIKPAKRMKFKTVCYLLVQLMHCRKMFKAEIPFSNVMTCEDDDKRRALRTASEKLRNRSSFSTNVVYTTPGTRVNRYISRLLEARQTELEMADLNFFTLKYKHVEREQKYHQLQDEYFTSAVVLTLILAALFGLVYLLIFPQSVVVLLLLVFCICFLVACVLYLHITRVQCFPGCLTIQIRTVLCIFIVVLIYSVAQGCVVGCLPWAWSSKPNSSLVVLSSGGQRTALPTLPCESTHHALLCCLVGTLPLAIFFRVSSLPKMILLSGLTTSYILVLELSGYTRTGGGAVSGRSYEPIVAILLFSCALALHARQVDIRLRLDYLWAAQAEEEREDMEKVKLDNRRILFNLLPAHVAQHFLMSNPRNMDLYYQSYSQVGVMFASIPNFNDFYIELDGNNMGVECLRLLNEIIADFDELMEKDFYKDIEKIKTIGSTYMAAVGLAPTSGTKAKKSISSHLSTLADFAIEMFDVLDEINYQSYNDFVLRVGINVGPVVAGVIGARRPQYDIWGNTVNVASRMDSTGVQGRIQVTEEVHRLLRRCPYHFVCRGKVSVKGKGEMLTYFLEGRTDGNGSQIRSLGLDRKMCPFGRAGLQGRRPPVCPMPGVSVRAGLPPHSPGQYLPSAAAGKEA

[3] = system: endogenous tmACs expressed in HEK293T cells; assay type: biochemical, mammalian; details: 100 μM compound
human sAC = details: read-out: reported IC50 against human sAC; cited from earlier work
CyaC [4] = molecular target: T1, CyaC; experiment: biochemical; details: read-out: IC50 against CyaC in vitro (estimated)
mammalian sAC = molecular target: T3, mammalian sAC (Homo sapiens, UniProt Q96PN6); experiment: Activity assay with purified, recombinant mammalian sAC; assay type: biochemical, human or rat; details: dose-response curve
T3 sequence (Q96PN6 1-469): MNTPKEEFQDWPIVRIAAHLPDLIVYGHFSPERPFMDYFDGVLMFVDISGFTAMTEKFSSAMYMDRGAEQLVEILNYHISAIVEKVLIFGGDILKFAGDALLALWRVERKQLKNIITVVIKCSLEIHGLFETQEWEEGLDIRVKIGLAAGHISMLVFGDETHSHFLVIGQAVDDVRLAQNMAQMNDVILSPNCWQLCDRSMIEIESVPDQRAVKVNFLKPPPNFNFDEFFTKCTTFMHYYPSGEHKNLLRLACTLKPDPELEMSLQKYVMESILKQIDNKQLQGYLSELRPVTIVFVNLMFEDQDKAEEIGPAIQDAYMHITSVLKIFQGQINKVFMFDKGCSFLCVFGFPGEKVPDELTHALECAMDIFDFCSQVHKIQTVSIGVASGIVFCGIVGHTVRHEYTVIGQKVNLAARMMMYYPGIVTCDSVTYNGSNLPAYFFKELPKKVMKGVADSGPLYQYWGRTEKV

AC2 = AC2 (Homo sapiens, UniProt Q08462)
AC2, sequence (Q08462 whole entry): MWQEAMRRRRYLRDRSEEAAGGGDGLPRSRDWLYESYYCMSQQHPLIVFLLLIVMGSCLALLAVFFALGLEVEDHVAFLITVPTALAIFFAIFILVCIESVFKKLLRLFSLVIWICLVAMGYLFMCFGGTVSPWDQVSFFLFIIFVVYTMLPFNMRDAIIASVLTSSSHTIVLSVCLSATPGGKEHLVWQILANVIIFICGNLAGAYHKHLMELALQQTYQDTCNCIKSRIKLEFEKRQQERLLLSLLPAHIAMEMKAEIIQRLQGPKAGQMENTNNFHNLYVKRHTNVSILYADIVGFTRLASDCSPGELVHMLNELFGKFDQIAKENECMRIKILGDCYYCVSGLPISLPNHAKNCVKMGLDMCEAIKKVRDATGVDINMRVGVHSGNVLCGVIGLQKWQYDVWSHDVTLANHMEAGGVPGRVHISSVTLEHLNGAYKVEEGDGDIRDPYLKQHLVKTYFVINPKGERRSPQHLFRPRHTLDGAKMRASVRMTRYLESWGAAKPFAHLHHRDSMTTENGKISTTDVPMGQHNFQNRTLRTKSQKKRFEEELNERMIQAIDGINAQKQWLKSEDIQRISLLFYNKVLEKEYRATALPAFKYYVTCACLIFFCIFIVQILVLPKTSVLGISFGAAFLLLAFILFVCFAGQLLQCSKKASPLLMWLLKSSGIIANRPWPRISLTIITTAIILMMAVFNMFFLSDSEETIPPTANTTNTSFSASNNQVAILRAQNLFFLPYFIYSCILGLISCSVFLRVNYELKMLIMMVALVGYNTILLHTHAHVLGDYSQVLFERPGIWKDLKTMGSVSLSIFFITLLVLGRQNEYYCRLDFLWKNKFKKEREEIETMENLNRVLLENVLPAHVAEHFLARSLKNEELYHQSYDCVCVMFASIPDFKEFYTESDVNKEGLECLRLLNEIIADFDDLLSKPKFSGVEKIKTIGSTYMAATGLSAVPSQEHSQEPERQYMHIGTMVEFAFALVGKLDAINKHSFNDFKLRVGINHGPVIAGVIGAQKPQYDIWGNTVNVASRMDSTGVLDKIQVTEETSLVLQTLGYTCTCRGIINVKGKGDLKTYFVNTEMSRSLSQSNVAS

T1 sequence (O32393 998-1202 limits assumed): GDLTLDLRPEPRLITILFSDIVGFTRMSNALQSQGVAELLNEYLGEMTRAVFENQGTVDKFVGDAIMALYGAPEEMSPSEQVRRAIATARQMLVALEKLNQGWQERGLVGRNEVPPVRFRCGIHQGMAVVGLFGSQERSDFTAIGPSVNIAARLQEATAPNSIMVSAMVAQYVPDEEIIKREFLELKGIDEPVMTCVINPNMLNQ

For C[C@]12CC[C@@H]3c4cc(O)c(O)cc4CC[C@H]3[C@@H]1CC[C@@H]2O [Compound 1, 2-hydroxy-17β-estradiol], the “Mode of inhibition with respect to ATP (reported)” value (CyaC [1]) is listed as “noncompetitive inhibitor”.
In the case of C[C@]12CC[C@H]3[C@@H](CCC4=CC(=O)CC[C@@]43C)[C@@H]1CC[C@@H]2C(=O)COS(=O)(=O)c1ccc(Br)cc1 [Compound 2, 3,20-dioxopregn-4-en-21-yl 4-bromobenzenesulfonate], the “Vmax of CyaC” value (CyaC [2]; 1 μM inhibitor) is reported as 0.38 nmol/mg/min, the “Vmax of CyaC” value (CyaC [2]; […] inhibitor) is reported as 0.29 nmol/mg/min and the “Vmax of CyaC” value (CyaC [2]; […] μM inhibitor) is reported as 0.08 nmol/mg/min. The “Mode of inhibition with respect to ATP” value (CyaC [2]; various substrate concentrations at fixed inhibitor amounts) was “noncompetitive inhibitor”, the “Effect on basal AC9 activity” value (AC9) was “did not appreciably affect” and the “Inhibition of AC5 activity” value (AC5) was “did not significantly inhibit”. The “Inhibition of AC1 activity” value (AC1) was “did not significantly inhibit” and the “Inhibition of forskolin-stimulated AC activity in HEK293T whole cell extracts” value [3] was “no significant inhibition”.
For C[C@H]1O[C@@H](n2cnc3c(N)ncnc32)C[C@@H]1OP(=O)(O)OP(=O)(O)OP(=O)(O)O [2′,5′-didesoxy-3′-ATP], the IC50 (human sAC) is listed as 0.7 µM.
Work on BrC(c1cccc2ccccc12)c1cccc2ccccc12 [Compound 4, 1-(bromo(1-naphthyl)methyl)naphthalene] yielded a potency estimated from few doses (CyaC [4]) of about 200 µM.
C[C@H]1[C@H](C)CC[C@]2(C(=O)O)CC[C@]3(C)C(=CC[C@@H]4[C@@]5(C)C[C@@H](O)[C@H](O)[C@@](C)(CO)[C@@H]5[C@H](O)C[C@]43C)[C@H]12 [Compound 8, 2,3,6,23-tetrahydroxyurs-12-en-28-oic acid] gave a potency estimated from few doses (CyaC [4]) of about 100 µM.
With O=C(O)c1cc2c(cc1S(=O)(=O)O)C1C(C3C2C2(Cl)C(Cl)=C(Cl)C3(Cl)C2(Cl)Cl)C2(Cl)C(Cl)=C(Cl)C1(Cl)C2(Cl)Cl (stereo not drawn) [Compound 3, 1,2,3,4,5,6,7,8,13,13,14,14-dodecachloro-1,4,4a,4b,5,8,8a, 12b-octahydro-11-sulfo-1,4:5,8-dimethanotriphenylene-10-carboxylic acid] the “Hill coefficient for sAC inhibition” value (mammalian sAC) was 2.0, the “Effect on basal AC9 activity” value (AC9) was “only moderate inhibition” and the “Inhibition of AC5 activity” value (AC5) was “only moderate inhibition”. For the same compound, the “Inhibition of basal AC2 activity” value (AC2; 100 μM compound, basal, transfected HEK293T lysate) was “only moderate inhibition”, the “Effect on AC2 in the presence of forskolin” value (AC2; in the presence of forskolin, data not shown) was “stimulation” and the “Inhibition of AC1 activity” value (AC1) was “only moderate inhibition”.
